In patent US4401660A, “Ester derivatives of 5-O-mycaminosyl tylonolide and method of using same” (Eli Lilly and Company, priority 1981, dated 1983):

How the values were obtained:
[1] = test system: Streptococcus Group D 9960; assay: MIC, standard agar-dilution assay (Table II); format: cell-based; set-up: unit not given here
Protocol: (§1) The MIC's in Table II were determined by standard agar-dilution assays. The MIC's in Table III were obtained using a conventional broth-dilution microtiter test.

[2] = test system: Streptococcus pyogenes C203; assay: MIC, standard agar-dilution assay (Table II); format: cell-based; set-up: unit not given here
Protocol: as §1

[3] = test system: Haemophilus influenzae Holt; assay: MIC, standard agar-dilution assay (Table II); format: cell-based; set-up: unit not given here; settings: ampicillin-sensitive strain
Protocol: as §1

[4] = test system: Staphylococcus aureus V41; assay: MIC, standard agar-dilution assay (Table II); format: cell-based; set-up: unit not given here; settings: Staphylococcus aureus V41, penicillin-resistant strain
Protocol: as §1

[5] = test system: Staphylococcus epidermidis EPI2; assay: MIC, standard agar-dilution assay (Table II); format: cell-based; set-up: unit not given here
Protocol: as §1

[6] = test system: Streptococcus Group D X66; assay: MIC, standard agar-dilution assay (Table II); format: cell-based; set-up: unit not given here
Protocol: as §1

[7] = test system: Staphylococcus aureus X1.1; assay: MIC, standard agar-dilution assay (Table II); format: cell-based; set-up: unit not given here
Protocol: as §1

[8] = test system: Staphylococcus aureus S13E; assay: MIC, standard agar-dilution assay (Table II); format: cell-based; set-up: unit not given here
Protocol: as §1

[9] = test system: Staphylococcus aureus X400; assay: MIC, standard agar-dilution assay (Table II); format: cell-based; set-up: unit not given here; settings: Staphylococcus aureus X400, methicillin-resistant strain
Protocol: as §1

[10] = test system: Streptococcus pneumoniae Park I; assay: MIC, standard agar-dilution assay (Table II); format: cell-based; set-up: unit not given here
Protocol: as §1

[11] = test system: Haemophilus influenzae R252; assay: MIC, standard agar-dilution assay (Table II); format: cell-based; set-up: unit not given here; settings: Haemophilus influenzae R252, ampicillin-resistant strain
Protocol: as §1

[12] = test system: Staphylococcus epidermidis EPI1; assay: MIC, standard agar-dilution assay (Table II); format: cell-based; set-up: unit not given here
Protocol: as §1

Mycoplasma synoviae = assay: MIC, broth-dilution microtiter test (Table III); format: cell-based; set-up: unit not given here
Protocol: as §1

Mycoplasma hyorhinis = assay: MIC, broth-dilution microtiter test (Table III); format: cell-based; set-up: unit not given here
Protocol: as §1

Staphylococcus aureus = assay: MIC, broth-dilution microtiter test (Table III); format: cell-based; set-up: unit not given here
Protocol: as §1

Mycoplasma gallisepticum = assay: MIC, broth-dilution microtiter test (Table III); format: cell-based; set-up: unit not given here
Protocol: as §1

[13] = test system: Pasteurella haemolytica 23C; assay: MIC, broth-dilution microtiter test (Table III); format: cell-based; set-up: unit not given here
Protocol: as §1

[14] = test system: Pasteurella multocida 22A; assay: MIC, broth-dilution microtiter test (Table III); format: cell-based; set-up: unit not given here
Protocol: as §1

[15] = test system: Pasteurella haemolytica 41D; assay: MIC, broth-dilution microtiter test (Table III); format: cell-based; set-up: unit not given here
Protocol: as §1

[16] = test system: Pasteurella multocida 17E; assay: MIC, broth-dilution microtiter test (Table III); format: cell-based; set-up: unit not given here; settings: bovine isolate
Protocol: as §1

Streptococcus sp. 80 = assay: MIC, broth-dilution microtiter test (Table III); format: cell-based; set-up: unit not given here
Protocol: as §1

[17] = test system: Pasteurella multocida 40G; assay: MIC, broth-dilution microtiter test (Table III); format: cell-based; set-up: unit not given here
Protocol: as §1

[18] = test system: Pasteurella haemolytica 22C; assay: MIC, broth-dilution microtiter test (Table III); format: cell-based; set-up: unit not given here
Protocol: as §1

[19] = test system: Pasteurella multocida 60A; assay: MIC, broth-dilution microtiter test (Table III); format: cell-based; set-up: unit not given here; settings: avian isolate
Protocol: as §1

[20] = test system: Pasteurella multocida 68C; assay: MIC, broth-dilution microtiter test (Table III); format: cell-based; set-up: unit not given here
Protocol: as §1

Pasteurella multocida = assay: Treatment of Pasteurella infections in chicks (Table V); format: in vivo, one-day-old chicks; settings: Pasteurella multocida, sc, 4 h; 30 mg/kg by subcutaneous injection one and four hours post challenge; read-out: Deaths in Treated Chicks/Number Treated (converted)
Procedure, shortened: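 Dosing was 30 mg/kg by subcutaneous injection, one and four hours after challenge. Day-old chicks received 0.1 ml of a 10^-3 dilution of a 20-hour tryptose broth culture of avian P. multocida subcutaneously. Nonmedicated infected chicks served as controls, ten per group.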

| SMILES | minimal inhibitory concentration (MIC) [1] | minimal inhibitory concentration (MIC) [2] | minimal inhibitory concentration (MIC) [3] | minimal inhibitory concentration (MIC) [4] | minimal inhibitory concentration (MIC) [5] | minimal inhibitory concentration (MIC) [6] | minimal inhibitory concentration (MIC) [7] | minimal inhibitory concentration (MIC) [8] | minimal inhibitory concentration (MIC) [9] | minimal inhibitory concentration (MIC) [10] | minimal inhibitory concentration (MIC) [11] | minimal inhibitory concentration (MIC) [12] | minimal inhibitory concentration (MIC) (Mycoplasma synoviae) | minimal inhibitory concentration (MIC) (Mycoplasma hyorhinis) | minimal inhibitory concentration (MIC) (Staphylococcus aureus) | minimal inhibitory concentration (MIC) (Mycoplasma gallisepticum) | minimal inhibitory concentration (MIC) [13] | minimal inhibitory concentration (MIC) [14] | minimal inhibitory concentration (MIC) [15] | minimal inhibitory concentration (MIC) [16] | further results |
| --- | --- | --- | --- | --- | --- | --- | --- | --- | --- | --- | --- | --- | --- | --- | --- | --- | --- | --- | --- | --- | --- |
| CCC1OC(=O)CC(O)C(C)C(OC2OC(C)C(O)C(N(C)C)C2O)C(CC=O)CC(C)C(=O)C=CC(C)=CC1COC(=O)Cc1cc(OC)ccc1OC (centres unmarked) [Compound 63] | 0.25 | 0.06 | 1 | 0.25 | 0.25 | 0.125 | 0.125 | 0.25 | 0.25 | 0.03 | 2 | 0.25 | < 0.05 | 1.56 | 1.56 | 0.39 | 6.25 | 6.25 | 12.5 | 6.25 | minimal inhibitory concentration (MIC) (Streptococcus sp. 80): 0.195; minimal inhibitory concentration (MIC) [17]: 3.12; minimal inhibitory concentration (MIC) [18]: 6.25; minimal inhibitory concentration (MIC) [19]: 3.12; minimal inhibitory concentration (MIC) [20]: 6.25; mortality at 30 mg/kg (Pasteurella multocida): 75% |
| CCC1OC(=O)CC(O)C(C)C(OC2OC(C)C(O)C(N(C)C)C2OC(C)=O)C(CC=O)CC(C)C(=O)C=CC(C)=CC1COC(=O)OC (centres unmarked) [Compound 73] | 0.25 | 0.25 | 1 | 0.25 | 0.25 | 0.25 | 0.25 | 0.25 | 0.25 | 0.03 | 2 | 0.25 | 0.097 | 0.39 | 0.78 | 0.097 | 6.25 | > 50 | 3.12 | 6.25 | minimal inhibitory concentration (MIC) (Streptococcus sp. 80): 0.39; minimal inhibitory concentration (MIC) [17]: 6.25; minimal inhibitory concentration (MIC) [18]: 6.25; minimal inhibitory concentration (MIC) [19]: 6.25; minimal inhibitory concentration (MIC) [20]: 3.12; mortality at 30 mg/kg (Pasteurella multocida): 0% |
| CCC1OC(=O)CC(O)C(C)C(OC2OC(C)C(O)C(N(C)C)C2O)C(CC=O)CC(C)C(=O)C=CC(C)=CC1COC(=O)Cc1ccc([N+](=O)[O-])cc1 (centres unmarked) [Compound 65] | 0.125 | 0.06 | 1 | 0.125 | 0.125 | 0.125 | 0.125 | 0.125 | 0.125 | 0.03 | 1 | 0.125 | < 0.05 | 0.78 | 0.39 | 0.195 | 3.12 | 3.12 | 3.12 | 3.12 | minimal inhibitory concentration (MIC) (Streptococcus sp. 80): 0.195; minimal inhibitory concentration (MIC) [17]: 1.56; minimal inhibitory concentration (MIC) [18]: 3.12; minimal inhibitory concentration (MIC) [19]: 3.12; minimal inhibitory concentration (MIC) [20]: 3.12; mortality at 30 mg/kg (Pasteurella multocida): 73.3% |
| CCC1OC(=O)CC(O)C(C)C(OC2OC(C)C(O)C(N(C)C)C2OC(C)=O)C(CC=O)CC(C)C(=O)C=CC(C)=CC1COC(=O)NCc1ccccc1 (centres unmarked) [Compound 75] | 0.125 | 0.125 | 0.5 | 0.25 | 0.125 | 0.25 | 0.125 | 0.125 | 0.25 | 0.03 | 1 | 0.125 | < 0.048 | 0.78 | 0.78 | 0.048 | 3.12 | > 50 | 6.25 | 6.25 | minimal inhibitory concentration (MIC) (Streptococcus sp. 80): 0.39; minimal inhibitory concentration (MIC) [17]: 12.5; minimal inhibitory concentration (MIC) [18]: 6.25; minimal inhibitory concentration (MIC) [19]: 6.25; minimal inhibitory concentration (MIC) [20]: 3.12; mortality at 30 mg/kg (Pasteurella multocida): 100% |
